Each structure is given as a SMILES string. Like-named read-outs stand apart in the source and are kept apart here.

In the test the test system is test plant species. Nature of the test: Post-emergent herbicidal activity test (greenhouse, foliar spray, visual growth reduction). To be noted: 140 g ai/ha, 14 days after application; for pest or weed control at 140 g/ha: post-emergence, 336 h. Type of test: in vivo. The essentials:
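Greenhouse plants at first–second true leaf stage sprayed overhead at 187 L/ha with compound in acetone/water/isopropanol/DMSO/crop oil/X-77 carrier; controls received solvent blank. Injury rated visually after 14 d on a 0–100% scale versus untreated and control plants, converted to growth reduction.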

[1] abbreviates: ALOMY: blackgrass (Alopecurus myosuroides), read-out: Visual Growth Reduction (%) 14 Days After Application, ALOMY.
[2] abbreviates: AMARE: redroot pigweed (Amaranthus retroflexus), read-out: Visual Growth Reduction (%) 14 Days After Application, AMARE.
[3] abbreviates: AVEFA: wild oat (Avena fatua), read-out: Visual Growth Reduction (%) 14 Days After Application, AVEFA.
[4] abbreviates: CHEAL: lambsquarters (Chenopodium album), read-out: Visual Growth Reduction (%) 14 Days After Application, CHEAL.
[5] abbreviates: CIRAR: canada thistle (Cirsium arvense), read-out: Visual Growth Reduction (%) 14 Days After Application, CIRAR.
[6] abbreviates: CYPES: yellow nutsedge (Cyperus esculentus), read-out: Visual Growth Reduction (%) 14 Days After Application, CYPES.
The mark [7] stands for this setting: DIGSA: crabgrass (Digitaria sanguinalis), read-out: Visual Growth Reduction (%) 14 Days After Application, DIGSA.
Where [8] appears, read: ECHCG: barnyardgrass (Echinochloa crus-galli), read-out: Visual Growth Reduction (%) 14 Days After Application, ECHCG.
Where [9] appears, read: IPOHE: ivy-leaf morning glory (Ipomoea hederacea), read-out: Visual Growth Reduction (%) 14 Days After Application, IPOHE.
[10] abbreviates: KCHSC: kochia (Bassia scoparia), read-out: Visual Growth Reduction (%) 14 Days After Application, KCHSC.
The mark [11] stands for this setting: ORYSA: rice (Oryza sativa), read-out: Visual Growth Reduction (%) 14 Days After Application, ORYSA.
Setting [12] is: SETFA: giant foxtail (Setaria faberi), read-out: Visual Growth Reduction (%) 14 Days After Application, SETFA.
Setting [13] is: SORVU: grain sorghum (Sorghum vulgare), read-out: Visual Growth Reduction (%) 14 Days After Application, SORVU.
Setting [14] is: STEME: common chickweed (Stellaria media), read-out: Visual Growth Reduction (%) 14 Days After Application, STEME.
Where [15] appears, read: TRZAS: wheat, spring (Triticum aestivum), read-out: Visual Growth Reduction (%) 14 Days After Application, TRZAS.

In the case of `COC(=O)c1nc(-c2ccc(Cl)c([N+](=O)[O-])c2)ccc1Cl` [F83, Methyl 3-chloro-6-(4-chloro-3-nitrophenyl) picolinate], the “Visual Growth Reduction (%) 14 Days After Application, ALOMY” value (ALOMY: blackgrass (Alopecurus myosuroides)) was “G (0-29)”. Moreover, the “Visual Growth Reduction (%) 14 Days After Application, AMARE” value (AMARE: redroot pigweed (Amaranthus retroflexus)) was “G (0-29)”. In addition, the “Visual Growth Reduction (%) 14 Days After Application, AVEFA” value (AVEFA: wild oat (Avena fatua)) is “G (0-29)”. Also, the “Visual Growth Reduction (%) 14 Days After Application, CHEAL” value (CHEAL: lambsquarters (Chenopodium album)) is “G (0-29)”. In addition, the “Visual Growth Reduction (%) 14 Days After Application, CIRAR” value (CIRAR: canada thistle (Cirsium arvense)) is “G (0-29)”. Also, for the setting “CYPES: yellow nutsedge (Cyperus esculentus)”, the “Visual Growth Reduction (%) 14 Days After Application, CYPES” value is reported as “G (0-29)”. The “Visual Growth Reduction (%) 14 Days After Application, DIGSA” value (DIGSA: crabgrass (Digitaria sanguinalis)) was “G (0-29)”. Besides, the “Visual Growth Reduction (%) 14 Days After Application, ECHCG” value (ECHCG: barnyardgrass (Echinochloa crus-galli)) is “G (0-29)”. In addition, under “IPOHE: ivy-leaf morning glory (Ipomoea hederacea)”, the “Visual Growth Reduction (%) 14 Days After Application, IPOHE” value is listed as “G (0-29)”. Where the note is “KCHSC: kochia (Bassia scoparia)”, the “Visual Growth Reduction (%) 14 Days After Application, KCHSC” value is given as “G (0-29)”. Where the note is “ORYSA: rice (Oryza sativa)”, the “Visual Growth Reduction (%) 14 Days After Application, ORYSA” value is given as “G (0-29)”. Also, the “Visual Growth Reduction (%) 14 Days After Application, SETFA” value (SETFA: giant foxtail (Setaria faberi)) was “G (0-29)”. Besides, the “Visual Growth Reduction (%) 14 Days After Application, SORVU” value (SORVU: johnsongrass (Sorghum vulgare)) was “G (0-29)”. Besides, the “Visual Growth Reduction (%) 14 Days After Application, STEME” value (STEME: common chickweed (Stellaria media)) is listed as “G (0-29)”. Besides, the “Visual Growth Reduction (%) 14 Days After Application, TRZAS” value (TRZAS: wheat, spring (Triticum aestivum)) is “G (0-29)”.
Consider `O=C(O)c1nc(-c2ccc(C(F)(F)F)nc2)c(Cl)cc1Cl` [F84, 3,5-dichloro-6′-(trifluoromethyl)-[2,3′-bipyridine]-6-carboxylic acid], for which the pest or weed control at 140 g/ha under setting [1] fell in the range of 0 to 29%; the pest or weed control at 140 g/ha under setting [2] was 0 to 29%; the pest or weed control at 140 g/ha under setting [3] fell in the range of 0 to 29%; the pest or weed control at 140 g/ha under setting [4] fell in the range of 45 to 59%; the pest or weed control at 140 g/ha under setting [5] lay within 0 to 29%; the pest or weed control at 140 g/ha under setting [6] lay within 0 to 29%. In addition, the pest or weed control at 140 g/ha is, setting by setting: under setting [7], 30 to 44%; under setting [8], 0 to 29%; under setting [9], 0 to 29%; under setting [10], 0 to 29%; under setting [11], 0 to 29%; under setting [12], 0 to 29%. In addition, the pest or weed control at 140 g/ha reads like this: under setting [13], 0 to 29%; under setting [14], 0 to 29%; under setting [15], 0 to 29%.
For `COC(=O)c1nc(-c2ccc3c(c2F)OCO3)ccc1Cl` [F85, Methyl 3-chloro-6-(4-fluorobenzo[d][1,3]dioxol-5-yl)picolinate], the pest or weed control at 140 g/ha reads like this: under setting [1], 0 to 29%; under setting [2], 0 to 29%; under setting [3], 0 to 29%; under setting [4], 75 to 84%; under setting [5], 0 to 29%; under setting [6], 0 to 29%. In addition, the pest or weed control at 140 g/ha lay in the range of 0 to 29% under setting [7]; 30 to 44% under setting [8]; 0 to 29% under setting [9]; 45 to 59% under setting [10]; 0 to 29% under setting [11]; 0 to 29% under setting [12]. The pest or weed control at 140 g/ha reads like this: under setting [13], 0 to 29%; under setting [14], 0 to 29%; under setting [15], 0 to 29%.
Regarding `COC(=O)c1nc(-c2ccc(C(F)(F)F)nc2)c(O)cc1Cl` [F87, methyl 5-chloro-3-hydroxy-6′-(trifluoromethyl)-[2,3′-bipyridine]-6-carboxylate], the pest or weed control at 140 g/ha is, setting by setting: under setting [1], 0 to 29%; under setting [2], 0 to 29%; under setting [3], 0 to 29%; under setting [4], 0 to 29%; under setting [5], 0 to 29%; under setting [6], 0 to 29%. Further, the pest or weed control at 140 g/ha under setting [7] is 0 to 29%; the pest or weed control at 140 g/ha under setting [8] fell in the range of 0 to 29%; the pest or weed control at 140 g/ha under setting [9] is 0 to 29%; the pest or weed control at 140 g/ha under setting [10] is 0 to 29%; the pest or weed control at 140 g/ha under setting [11] lay in the range of 0 to 29%; the pest or weed control at 140 g/ha under setting [12] was in the range of 0 to 29%. Besides, the pest or weed control at 140 g/ha under setting [13] fell in the range of 0 to 29%, the pest or weed control at 140 g/ha under setting [14] was in the range of 0 to 29% and the pest or weed control at 140 g/ha under setting [15] fell in the range of 0 to 29%.
In the case of `COC(=O)c1nc(-c2c(Cl)cc(C(F)(F)F)cc2Cl)ccc1Cl` [F88, Methyl 3-chloro-6-(2,6-dichloro-4-(trifluoromethyl)phenyl)picolinate], the pest or weed control at 140 g/ha is, setting by setting: under setting [1], 60 to 74%; under setting [2], 95 to 100%; under setting [3], 0 to 29%; under setting [4], 95 to 100%; under setting [5], 85 to 94%; under setting [6], 0 to 29%. For the same compound, the pest or weed control at 140 g/ha runs as follows: under setting [7], 85 to 94%; under setting [8], 75 to 84%; under setting [9], 75 to 84%; under setting [10], 45 to 59%; under setting [11], 0 to 29%; under setting [12], 85 to 94%. Besides, the pest or weed control at 140 g/ha was in the range of 85 to 94% under setting [13], 0 to 29% under setting [14] and 30 to 44% under setting [15].
For the compound `O=C(O)c1nc(-c2ccc(SC(F)(F)F)cc2)c(Cl)cc1Cl` [F89, 3,5-Dichloro-6-(4-((trifluoromethyl)thio)phenyl) picolinic acid], the pest or weed control at 140 g/ha under setting [1] lay in the range of 0 to 29%; the pest or weed control at 140 g/ha under setting [2] fell in the range of 0 to 29%; the pest or weed control at 140 g/ha under setting [3] is 0 to 29%; the pest or weed control at 140 g/ha under setting [4] lay in the range of 45 to 59%; the pest or weed control at 140 g/ha under setting [5] is 0 to 29%; the pest or weed control at 140 g/ha under setting [6] fell in the range of 0 to 29%. Also, the pest or weed control at 140 g/ha was in the range of 30 to 44% under setting [7]; 0 to 29% under setting [8]; 0 to 29% under setting [9]; 0 to 29% under setting [10]; 0 to 29% under setting [11]; 0 to 29% under setting [12]. The pest or weed control at 140 g/ha under setting [13] fell in the range of 0 to 29%, the pest or weed control at 140 g/ha under setting [14] lay within 0 to 29% and the pest or weed control at 140 g/ha under setting [15] lay within 0 to 29%.
For `COC(=O)c1nc(-c2ccc(SC(F)(F)F)cc2Cl)ccc1Cl` [F90, Methyl 3-chloro-6-(2-chloro-4-((trifluoromethyl)thio)phenyl) picolinate], the pest or weed control at 140 g/ha lay in the range of 0 to 29% under setting [1]; 75 to 84% under setting [2]; 0 to 29% under setting [3]; 75 to 84% under setting [4]; 85 to 94% under setting [5]; 0 to 29% under setting [6]. Besides, the pest or weed control at 140 g/ha is, setting by setting: under setting [7], 60 to 74%; under setting [8], 0 to 29%; under setting [9], 75 to 84%; under setting [10], 30 to 44%; under setting [11], 0 to 29%; under setting [12], 45 to 59%. The pest or weed control at 140 g/ha under setting [13] was in the range of 60 to 74%, the pest or weed control at 140 g/ha under setting [14] is 0 to 29% and the pest or weed control at 140 g/ha under setting [15] fell in the range of 0 to 29%.

These data come from patent US20230017045A1, “PYRIDINE AND PYRIMIDINE CARBOXYLATE HERBICIDES AND METHODS OF USE THEREOF” (Dow AgroSciences LLC, priority 2017, published 2023).
